# Experimental data taken from patent US7691567B2, “Methods and compositions relating to fortilin, an anti-apoptotic molecule, and modulators of fortilin” (Board of Regents, the University of Texas System, priority 2000, dated 2010).
# Entries after “also recorded” stand apart in the source; their conditions may differ. Like-named read-outs stand apart in the source and are kept apart here.
# Legend:
# caspase 3-like activity = assay: Assay of caspase 3-like activity in U2OS stable transfectants (Z-DEVD-AFC); assay type: cell-based
# Experimental: Assay of caspase 3-like activity. Approximately 2×10^6 U2OS stable transfectants, either expressing Fortilin (U2OS.F) or harboring empty expression vector (U2OS.E), both of which have been characterized above, were challenged either with dimethyl sulfoxide (DMSO) (vehicle) or with etoposide at a final concentration of 10 μg/mL for 48 hours. Caspase 3-like activity was then determined as previously described (Mannick et al., 1999). In brief, cytosolic proteins were extracted in hypotonic cell lysis buffer (25 mM HEPES, pH 7.5, 5 mM MgCl2, 5 mM EDTA, 5 mM dithiothreitol, 0.05% phenylmethylsulfonyl fluoride [PMSF]; all from Sigma) by three cycles of freezing and thawing. The protein concentration of samples was determined by using a BioRad Bradford protein assay kit (BioRad). Ten micrograms of cytosolic extracts were added to caspase assay buffer (312.5 mM HEPES, pH 7.5, 31.25% sucrose, 0.3125% CHAPS) with Z-DEVD-AFC as substrates (CalBiochem, San Diego, Calif.). Release of 7-amido-4-(trifluoromethyl)coumarin (AFC) was quantified, after 2 hours of incubation at 37° C. (or, in the case of time course experiment, every 10 minutes), using a Fluoroskan system (Thermo-Labsystems, Helsinki, Finland) set to an excitation value of 355 nm and emission value of 525 nm. The results were expressed as relative fluorescence unit (R.F.U.) per microgram of protein.
# U2OS cells [1] = assay: Bax-mediated apoptosis in transfected U2OS cells (apoptotic index); assay type: cell-based; details: for prevention of Bax mediated apoptosis (apoptotic index): U2OS cells cotransfected with Bax-pcDNA3, thirty hours after transfection
# Experimental: The amount of LacZ-pFLAG was 1/10 to 1/20 (w/w) of total amounts of DNA added. Thirty hours after the transfection, cells were stained with X-gal. Blue cells represented cells expressing Bax, β-galactosidase and indicated proteins in question. At least 300 blue cells were counted and evaluated for plasma membrane morphology. Rounded cells were counted as apoptotic. Apoptotic index was calculated as the number of blue apoptotic cells divided by the number of total blue cells counted, expressed in percentage. Without the expression of Bax, there was a modest amount of background cell death noted (Lane 6). On the other hand, the presence of Bax caused 2 holds increase in the number of apoptotic cells (Lane 5). […] Taken together, the ability of Fortilin to inhibit Bax mediated apoptosis is mediated by its interaction with MCL1.
# H1299 cells = assay: p53-mediated apoptosis in transfected H1299 cells (apoptotic index); assay type: cell-based; details: overexpression, thirty hours after transfection
# Experimental: Because wild-type p53 can induce apoptosis, the ability of Fortilin to prevent or inhibit p53-mediated apoptosis was examined. H1299 cells were transfected with indicated combinations of mammalian expression constructs. Thirty hours after the transfection, cells were fixed and stained for beta-galactosidase activities. Cells that were round in shape with significant membrane irregularity were counted as apoptotic (FIG. 5). Apoptotic index was calculated as (Blue cells with apoptotic plasma membrane morphology)/(Total blue cells counted)×100.
# HeLa cells = assay: Cell death assay: etoposide-induced apoptosis in transfected HeLa cells (apoptotic index); assay type: cell-based; details: HeLa cells overexpressing FLAG-tagged protein; 5 μg/mL etoposide 12 hours
# Experimental: Cell death assay: The experiment was performed in duplicate and repeated at least three times. A total of […] HeLa cells were seeded in each well of a 4-well Lab-Teck™ chamber slides (Nalge Nunc International), and transfected with pFLAG containing Fortilin or other control cDNAs, using FuGENE6 (Roche). Twenty-four hours after the transfection, the cells were challenged by 5 μg/mL etoposide for 12 hours. Cells were stained for the FLAG-epitope using anti-FLAG antibody (M2, Sigma Co) and anti-mouse IgG conjugated to Rhodamine Red X (Jackson ImmunoResearch Laboratories). The nuclei were stained with DAPI (4,6-Diamidino-2-phenylindole, Sigma Co). Cells were then examined under a Zeiss AXIOSKOP fluorescent microscope (Carl Zeiss Ltd.), using appropriate filter sets. Cells that emitted red fluorescence were evaluated for their nuclear morphology. Condensed or fragmented nuclei were counted as apoptotic. An apoptotic index was then calculated as the number of red cells with apoptotic nuclear morphology divided by the number of total red cells counted and multiplied by 100.
# Statistical analysis: For the analysis of statistical significance of apoptotic indices among cells transfected with different plasmids, Dunnett's T tests were performed. In all cases, the confidence intervals were 0.95 with the alpha value of 0.05. For the statistical evaluation of the significant linear trend between the amount of plasmids used for the transfection and apoptotic indices, ANOVA (Analysis of Variance) regression analysis was employed. […] For the analysis of statistical significance of possible correlation between the degree of malignancy and the indices of Fortilin immunoreactivity, Dunnett's multiple range tests were performed.
# [2] = test system: p53 transactivation of Bax gene; assay: p53 transactivation of Bax gene, p-Bax-RE-Luc luciferase reporter in H1299 cells; assay type: cell-based; details: twenty-four hours after transfection
# Experimental: The ability of Fortilin to interfere with transactivation of the Bax gene by p53 was investigated. Non-small cell lung cancer cell line H1299 cells were transfected with p53-pcDNA3, LacZ-pFLAG, p-Bax-RE-Luc (a plasmid encoding the Luciferase gene under the control of the Bax responsive element) and pFLAG vector encoding Bcl-2, MCL1, Fortilin or truncated Fortilin as indicated in FIG. 6. Twenty-four hours after the transfection, luciferase activity was measured and normalized to the β-galactosidase activity, the latter representing transfection efficiency.
# Next, studies were conducted to determine whether the inhibition was dosage dependent. H1299 cells were transfected with p53-pcDNA3, LacZ-pFLAG, p-Bax-RE-Luc and various amount of Fortilin-pFLAG. The total amount of DNA added was adjusted by the addition of empty pFLAG vector. Twenty-four hours after the transfection, luciferase activity was measured and normalized to the β-galactosidase activity.
# U2OS cells [3] = details: U2OS stable transfectants of HA-tagged Fortilin or deletion mutants, 5 μg/mL etoposide 48 hours
# Description: Generation and characterization of U2OS cells stably expressing Fortilin. U2OS cells were transfected with empty pcDNA6, a mammalian expression vector containing a blasticidine resistance gene (Invitrogen, Carlsbad, Calif.), or with pcDNA6 vector encoding wild-type Fortilin, by using FuGENE6 (Roche Molecular Biochemicals) according to the manufacturer's instructions. Transfected cells were selected for approximately 3 weeks and characterized by Western blot analysis. For the cytotoxicity assay, U2OS cells stably expressing wild-type Fortilin (U2OS.F) and U2OS cells stably harboring empty pcDNA6 (U2OS.E) were seeded in a 96 well plate in quadruplicate. For the investigation of dose response, cells were challenged with various concentrations of etoposide (0-20 μg/mL) for 48 hours. For the time course study, cells were challenged with 5 μg/mL of etoposide and harvested after various incubation periods (0-96 hours). In both cases, the cell media were assayed for the lactate dehydrogenase (LDH) activity released from the cytosol of damaged cells, using a cytotoxicity detection kit (Roche Molecular Biochemicals) according to the manufacturer's instructions. The cytotoxicity index was calculated as follows: (LDH activity in the media−background LDH activity)÷(LDH activity in the medium of cells lysed by 1% Triton X-100−background LDH activity)×100.
# Cell death assay. U2OS cells stably expressing Fortilin or its mutants were seeded in 96-well plates in triplicate. Cells were then challenged with 5 μg/mL of etoposide (Sigma) for 48 hours. Then the cell media were assayed for the lactate dehydrogenase (LDH) activity released from the cytosol of damaged cells, using a Cytotoxicity Detection Kit (Roche Molecular Biochemicals), according to the manufacturer's instructions. The cytotoxicity index was calculated as follows: (LDH activity in the media−background LDH activity)/(LDH activity in the medium of the cells lysed by 1% Triton X-100−background LDH activity)×100.
# Statistical analysis. For analysis of the statistical significance of differences in cytotoxicity indices among cells stably transfected with Fortilin, its mutants or control plasmids, Student's t-test was performed using a commercial software (Minitab Inc., State College, Pa.). In all cases, a P-value less than 0.05 was considered to be statistically significant.
molecule,measurement,setting,value
"COc1cc([C@@H]2c3cc4c(cc3[C@@H](O[C@@H]3O[C@@H]5CO[C@@H](C)O[C@H]5[C@H](O)[C@H]3O)[C@H]3COC(=O)[C@H]23)OCO4)cc(OC)c1O [etoposide, reference compound]",caspase-3-like activity index,"caspase 3-like activity; control U2OS.E cells (empty vector), etoposide 10 μg/mL 48 hours",1488.1±58.7 R.F.U./μg protein
same,increase in caspase-3-like activity,"caspase 3-like activity; control U2OS.E cells, etoposide challenge vs no etoposide",9.4 fold
Bax: pro-apoptotic protein expressed from Bax-pcDNA3 to induce apoptosis [reference compound],increase in the number of apoptotic cells,"U2OS cells [1]; U2OS cells, Bax expression versus without Bax",2 holds
Bcl-2: anti-apoptotic protein overexpressed as comparator [reference compound],suppression of p53 induced apoptosis (apoptotic index),H1299 cells,statistically significant (p<0.001) suppression of p53-induced apoptosis; also recorded: statistically significant (p<0.001) suppression of p53 induced apoptosis
"Bcl-xL: a Bcl-2 family protein, overexpressed as anti-apoptotic comparator",prevention of Etoposide-induced apoptosis (apoptotic index),HeLa cells,prevented HeLa cells from undergoing Etoposide-induced apoptosis in a statistically significant fashion
"MCL1: Myeloid Cell Leukemia 1, a Bcl-2 homologue, anti-apoptotic protein [reference compound]",inhibition of p53 transactivation of Bax gene (luciferase normalized to β-galactosidase),[2],inhibited p53 transactivation of the Bax gene
same,prevention of Etoposide-induced apoptosis (apoptotic index),HeLa cells,prevented HeLa cells from undergoing Etoposide-induced apoptosis in a statistically significant fashion
same,prevention of Bax mediated apoptosis (apoptotic index),U2OS cells [1],prevented cells from undergoing Bax mediated apoptosis
same,suppression of p53 induced apoptosis (apoptotic index),H1299 cells,statistically significant (p<0.001) suppression of p53-induced apoptosis; also recorded: statistically significant (p<0.001) suppression of p53 induced apoptosis
FortilinΔ23-172: mutant of Fortilin representing 23rd-172nd amino acids of Fortilin (protein) IADGLCLEVEGKMVSRTEGNIDDSLIGGNASAEGPEGEGTESTVITGVDIVMNHHLQETSFTKEAYKKYIKDYMKSIKGKLEEQRPERVKPFMTGAAEQIKHILANFKNYQFFIGENMNPDGMVALLDYREDGVTPYMIFFKDGLEMEKC,inhibition of p53 transactivation of Bax gene (luciferase normalized to β-galactosidase),[2]; listed as truncated Fortilin (23-172),inhibited p53 transactivation of the Bax gene
same,cytotoxicity index relative to control transfectants,U2OS cells [3],could not prevent cells from undergoing etoposide-induced cell death and instead sensitized the cells to etoposide-induced cell death
same,cytotoxicity index relative to control transfectants,U2OS cells [3]; listed as fortilinΔ23-172,significantly higher than that of control cells
same,prevention of Bax mediated apoptosis (apoptotic index),U2OS cells [1],failed to prevent cells from undergoing Bax mediated apoptosis
same,suppression of p53 induced apoptosis (apoptotic index),H1299 cells; listed as Fortilin(23-172),did not significantly prevent p53-mediated apoptosis; also recorded: did not significantly prevent p53 mediated apoptosis
"FortilinΔ46-172: Fortilin deletion mutant that lacks 26% of wild type Fortilin (protein, left off: small tags and cut ends, Fortilin deletion mutant that lacks 26% of wild type Fortilin) SLIGGNASAEGPEGEGTESTVITGVDIVMNHHLQETSFTKEAYKKYIKDYMKSIKGKLEEQRPERVKPFMTGAAEQIKHILANFKNYQFFIGENMNPDGMVALLDYREDGVTPYMIFFKDGLEMEKC",cytotoxicity index relative to control transfectants,U2OS cells [3],significantly lower than the cytotoxicity index of control cells
same,cytotoxicity index relative to control transfectants,U2OS cells [3]; listed as FortilinΔ45-172,"still capable of protecting cells, albeit modestly, from etoposide-induced cell death"
